Results on seven molecules are retold here after patent US20250340540A1, “Crystal Forms Of HS378 And Preparation Method Therefor” (priority 2022, published 2025).

Read-outs that look alike come from different tables or passages of the source.

Series [1] is classed as physicochemical. The following applies: for Changes of HPLC purity over 10 days: 10 days vs 0 day; for Stability of crystal form and HPLC data: 10 days. The method, then:
The X-ray powder diffraction instrument and test conditions involved in the present disclosure were as follows: X-ray diffraction instrument model MiniFlex600Cu target; operation method: scanning speed 20°/min, scanning step width 0.02°. The liquid phase test conditions involved in the present disclosure were as follows: chromatographic column: Agilent Zorbax SB-18, 150×4.6 mm, 5 μm; mobile phase A: 0.1% phosphoric acid aqueous solution; mobile phase B: acetonitrile; detection wavelength: 205 nm; flow rate: 1.0 ml/min; injection volume: 5 μl; column temperature: […]. The samples of crystal form A obtained in Example 1, the crystal form B obtained in Example 5 of the present disclosure, and the crystal forms 1, 2, 4, and 5 obtained in Preparation Example were placed at 60° C. for 5 days and 10 days, respectively, and subjected to HPLC and XRD detection, respectively.

The nature of series [2]: Microscope photographs: crystal habit and particle fluidity. Format: physicochemical. As to conditions: judged from microscope photographs. The source says:
Microscope photographs of the samples of the crystal form A obtained in Example 1, the crystal form B obtained in Example 5 of the present disclosure, and the crystal forms 1, 2, 4, and 5 obtained in Preparation Example are shown in FIGS. 7-12, respectively.

For series [3] the following is noted: human, in vivo; cited from earlier work.
[4] abbreviates: 0 Day, before placing at 60° C.

Take `CC(C)(C)[C@H](NC(=O)C(F)(F)F)C(=O)N1C[C@H]2[C@@H]([C@H]1C(=O)N[C@H](C#N)C[C@@H]1CCNC1=O)C2(C)C` [Crystal form 4]: the “HPLC purity (%)” value in series [1] (setting [4]) was found to be 93.31%; in series [1] (60° C., 5 Days), 93.26%; in series [1] (60° C., 10 Days), 93.14%. Besides, the “Changes of HPLC purity over 10 days” value in series [1] (60° C.) was −0.17.
Turning to `CC(C)(C)[C@H](NC(=O)C(F)(F)F)C(=O)N1C[C@H]2[C@@H]([C@H]1C(=O)N[C@H](C#N)C[C@@H]1CCNC1=O)C2(C)C` [Crystal form 1], the Particle fluidity result in series [2] is reported as “poor fluidity”. Also, the “HPLC purity (%)” value in series [1] (setting [4]) stood at 95.34%; in series [1] (60° C., 5 Days), 95.34%; in series [1] (60° C., 10 Days), 95.31%. The “Changes of HPLC purity over 10 days” value in series [1] (60° C.) is recorded as −0.03. The “Stability of crystal form and HPLC data” value in series [1] was “more stable than crystal form 2, crystal form 4 and crystal form 5”.
For `CC(C)(C)[C@H](NC(=O)C(F)(F)F)C(=O)N1C[C@H]2[C@@H]([C@H]1C(=O)N[C@H](C#N)C[C@@H]1CCNC1=O)C2(C)C` [Crystal form B], in series [2], the Particle fluidity entry was “good in particle fluidity”. The “HPLC purity (%)” value in series [1] (setting [4]) worked out at 99.57%; in series [1] (60° C., 5 Days), 99.56%; in series [1] (60° C., 10 Days) it was 99.54%. Moreover, the “Changes of HPLC purity over 10 days” value in series [1] (60° C.) is −0.03. In series [1], the “Stability of crystal form and HPLC data” value was “more stable than crystal form 2, crystal form 4 and crystal form 5”.
As to `CC(C)(C)[C@H](NC(=O)C(F)(F)F)C(=O)N1C[C@H]2[C@@H]([C@H]1C(=O)N[C@H](C#N)C[C@@H]1CCNC1=O)C2(C)C` [Crystal form 2], the Particle fluidity entry in series [2] was “poor fluidity”. For the same molecule, the “HPLC purity (%)” value in series [1] (setting [4]) came out at 93.83%; in series [1] (60° C., 5 Days), 93.71%; in series [1] (60° C., 10 Days), 93.52%. Besides, the “Changes of HPLC purity over 10 days” value in series [1] (60° C.) is given as −0.31.
In the case of `CC(C)(C)[C@H](NC(=O)C(F)(F)F)C(=O)N1C[C@H]2[C@@H]([C@H]1C(=O)N[C@H](C#N)C[C@@H]1CCNC1=O)C2(C)C` [Crystal form 5], the Particle fluidity entry in series [2] is recorded as “poor fluidity”. The “HPLC purity (%)” value in series [1] (setting [4]) is on record as 91.23%; in series [1] (60° C., 5 Days), 91.05%; in series [1] (60° C., 10 Days), 90.79%. Moreover, the “Changes of HPLC purity over 10 days” value in series [1] (60° C.) is given as −0.44.
In the case of `CC(C)(C)[C@H](NC(=O)C(F)(F)F)C(=O)N1C[C@H]2[C@@H]([C@H]1C(=O)N[C@H](C#N)C[C@@H]1CCNC1=O)C2(C)C` [Crystal form A], the Particle fluidity result in series [2] is on record as “good in particle fluidity”. The “HPLC purity (%)” value in series [1] (setting [4]) turned out to be 99.86%; in series [1] (60° C., 5 Days), 99.86%; in series [1] (60° C., 10 Days), 99.85%. The “Changes of HPLC purity over 10 days” value in series [1] (60° C.) is −0.01. Besides, the “Stability of crystal form and HPLC data” value in series [1] is “more stable than crystal form 2, crystal form 4 and crystal form 5”.
As to `CC(C)(C)[C@H](NC(=O)C(F)(F)F)C(=O)N1C[C@H]2[C@@H]([C@H]1C(=O)N[C@H](C#N)C[C@@H]1CCNC1=O)C2(C)C` [HS378, (1R, 2S, 5S)-N-{(1S)-1-cyano-2-[(3S)-2-oxopyrrolidin-3-yl]-ethyl}-6,6-dimethyl-3-[3-methyl-N-(trifluoroacetyl)-L-valyl]-3-azabicyclo [3.1.0]hexane-2-carboxamide], in series [3], the Oral plasma concentration result is on record as “exceeding in vitro antiviral cell efficacy”.
